Test results: the NIST ThermoML archive (doi:10.1021/je060210c)

What was measured:
[1] = excess molar enthalpy (molar enthalpy of mixing); xn = mol fraction of the nth substance listed; settings: 101 kPa, Liquid
[2] = xn = mol fraction of the nth substance listed; settings: 101 kPa, Liquid; for speed of sound: Sing-around technique in a fixed-path interferometer

C=C1CCC2CC1C2(C)C (stereo not drawn) [β-pinene] + CCCCCO
Settings | excess molar enthalpy [kJ/mol] | mass density [kg/m3] | speed of sound [m/s]
[1], 283.15 K, x1 = 0.049 | 0.028 | – | –
[1], 283.15 K, x1 = 0.096 | 0.065 | – | –
[1], 283.15 K, x1 = 0.192 | 0.136 | – | –
[1], 283.15 K, x1 = 0.286 | 0.209 | – | –
[1], 283.15 K, x1 = 0.388 | 0.27 | – | –
[1], 283.15 K, x1 = 0.488 | 0.315 | – | –
[1], 283.15 K, x1 = 0.588 | 0.339 | – | –
[1], 283.15 K, x1 = 0.69 | 0.345 | – | –
[1], 283.15 K, x1 = 0.791 | 0.322 | – | –
[1], 283.15 K, x1 = 0.892 | 0.253 | – | –
[1], 283.15 K, x1 = 0.95 | 0.2 | – | –
[1], 283.15 K, x1 = 0.97 | 0.15 | – | –
[1], 283.15 K, x1 = 0.99 | 0.095 | – | –
[1], 298.15 K, x1 = 0.049 | 0.074 | – | –
[1], 298.15 K, x1 = 0.096 | 0.155 | – | –
[1], 298.15 K, x1 = 0.192 | 0.314 | – | –
[1], 298.15 K, x1 = 0.286 | 0.459 | – | –
[1], 298.15 K, x1 = 0.388 | 0.585 | – | –
[1], 298.15 K, x1 = 0.488 | 0.671 | – | –
[1], 298.15 K, x1 = 0.588 | 0.72 | – | –
[1], 298.15 K, x1 = 0.69 | 0.726 | – | –
[1], 298.15 K, x1 = 0.791 | 0.673 | – | –
[1], 298.15 K, x1 = 0.892 | 0.528 | – | –
[1], 298.15 K, x1 = 0.95 | 0.385 | – | –
[1], 298.15 K, x1 = 0.97 | 0.306 | – | –
[1], 298.15 K, x1 = 0.99 | 0.246 | – | –
[1], 313.15 K, x1 = 0.049 | 0.107 | – | –
[1], 313.15 K, x1 = 0.096 | 0.224 | – | –
[1], 313.15 K, x1 = 0.192 | 0.443 | – | –
[1], 313.15 K, x1 = 0.286 | 0.647 | – | –
[1], 313.15 K, x1 = 0.388 | 0.812 | – | –
[1], 313.15 K, x1 = 0.488 | 0.926 | – | –
[1], 313.15 K, x1 = 0.588 | 0.989 | – | –
[1], 313.15 K, x1 = 0.69 | 0.994 | – | –
[1], 313.15 K, x1 = 0.791 | 0.929 | – | –
[1], 313.15 K, x1 = 0.892 | 0.762 | – | –
[1], 313.15 K, x1 = 0.95 | 0.536 | – | –
[1], 313.15 K, x1 = 0.97 | 0.399 | – | –
[1], 313.15 K, x1 = 0.99 | 0.137 | – | –
[2], 283.15 K, x1 = 0.1075 | – | 830.13 | 1327.7
[2], 283.15 K, x1 = 0.2016 | – | 836.79 | 1328.9
[2], 283.15 K, x1 = 0.3016 | – | 843.32 | 1330.6
[2], 283.15 K, x1 = 0.4028 | – | 849.41 | 1331.6
[2], 283.15 K, x1 = 0.5026 | – | 854.98 | 1333.2
[2], 283.15 K, x1 = 0.6034 | – | 860.24 | 1335.1
[2], 283.15 K, x1 = 0.7014 | – | 865.12 | 1337.8
[2], 283.15 K, x1 = 0.8036 | – | 869.97 | 1341.4
[2], 283.15 K, x1 = 0.9009 | – | 874.43 | 1346.2
[2], 283.15 K, x1 = 0.9481 | – | 876.59 | 1349.3
[2], 298.15 K, x1 = 0.1004 | – | – | 1275
[2], 298.15 K, x1 = 0.1057 | – | 819.15 | –
[2], 298.15 K, x1 = 0.2012 | – | 825.47 | –
[2], 298.15 K, x1 = 0.2024 | – | – | 1275.5
[2], 298.15 K, x1 = 0.3032 | – | 831.91 | –
[2], 298.15 K, x1 = 0.3081 | – | – | 1275.8
[2], 298.15 K, x1 = 0.3975 | – | – | 1275.9
[2], 298.15 K, x1 = 0.4023 | – | 837.67 | –
[2], 298.15 K, x1 = 0.4982 | – | – | 1276.4
[2], 298.15 K, x1 = 0.4984 | – | 842.91 | –
[2], 298.15 K, x1 = 0.6021 | – | 848.24 | 1277.9
[2], 298.15 K, x1 = 0.6945 | – | 852.74 | –
[2], 298.15 K, x1 = 0.696 | – | – | 1279.6
[2], 298.15 K, x1 = 0.7994 | – | 857.65 | –
[2], 298.15 K, x1 = 0.8066 | – | – | 1283
[2], 298.15 K, x1 = 0.8952 | – | – | 1286.9
[2], 298.15 K, x1 = 0.8997 | – | 862.25 | –
[2], 298.15 K, x1 = 0.9465 | – | 864.37 | –
[2], 298.15 K, x1 = 0.9528 | – | – | 1291
[2], 313.15 K, x1 = 0.1007 | – | 807.27 | –
[2], 313.15 K, x1 = 0.1023 | – | – | 1223.7
[2], 313.15 K, x1 = 0.2007 | – | – | 1221.7
[2], 313.15 K, x1 = 0.2048 | – | 814.01 | –
[2], 313.15 K, x1 = 0.3027 | – | 819.95 | –
[2], 313.15 K, x1 = 0.3049 | – | – | 1220.9
[2], 313.15 K, x1 = 0.4019 | – | 825.6 | 1220.4
[2], 313.15 K, x1 = 0.5024 | – | 830.92 | 1220.6
[2], 313.15 K, x1 = 0.5976 | – | 835.75 | 1221.2
[2], 313.15 K, x1 = 0.6977 | – | 840.54 | 1222.1
[2], 313.15 K, x1 = 0.7991 | – | 845.26 | 1224.3
[2], 313.15 K, x1 = 0.9066 | – | 850.18 | 1228.6
[2], 313.15 K, x1 = 0.9468 | – | 852.1 | 1231
